Experimental data reported in PubChem BioAssay (NCI).
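The compound was tested at five concentrations on cells cultured in 96-well plates, with a 48-hour exposure period. Here, GI50 denotes the concentration required for 50% inhibition of growth. TGI: concentration producing complete growth inhibition.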 Where a SMILES comes first, the peptide text is derived from it. [ ]: non-standard residue; d: D form.

What was measured:
Assay in all cases: inhibition of tumour cell growth, NCI panel, 48 h
DU-145 prostate = tested on: DU-145 prostate
HS 578T breast = tested on: HS 578T breast
MDA-MB-435 = tested on: MDA-MB-435
NCI/ADR-RES ovarian = tested on: NCI/ADR-RES ovarian
PC-3 prostate = tested on: PC-3 prostate
DMS 273 small cell lung = tested on: DMS 273 small cell lung
KM20L2 colon = tested on: KM20L2 colon
M19-MEL melanoma = tested on: M19-MEL melanoma
SNB-78 CNS = tested on: SNB-78 CNS
HOP-18 NSCLC = tested on: HOP-18 NSCLC

Row | Compound | GI50 (DU-145 prostate) [µM] | TGI (DU-145 prostate) [µM] | GI50 (HS 578T breast) [µM] | TGI (HS 578T breast) [µM] | GI50 (MDA-MB-435) [µM] | TGI (MDA-MB-435) [µM] | GI50 (NCI/ADR-RES ovarian) [µM] | TGI (NCI/ADR-RES ovarian) [µM] | GI50 (PC-3 prostate) [µM] | TGI (PC-3 prostate) [µM] | GI50 (DMS 273 small cell lung) [µM] | TGI (DMS 273 small cell lung) [µM] | GI50 (KM20L2 colon) [µM] | TGI (KM20L2 colon) [µM] | GI50 (M19-MEL melanoma) [µM] | TGI (M19-MEL melanoma) [µM] | GI50 (SNB-78 CNS) [µM] | TGI (HOP-18 NSCLC) [µM] | TGI (SNB-78 CNS) [µM]
1 | O=C(/C=C/c1ccc(Cl)cc1Cl)c1ccc(Cl)cc1Cl | 29.5 | > 100 | 20.1 | 58.2 | 16.7 | 35.3 | 25.1 | > 77.2 | 24.4 | 64.3 | – | – | – | – | – | – | – | – | –
2 | O=C1C(OC(=O)c2ccccc2)=C(c2ccc(O)cc2)C(=O)C(OC(=O)c2ccccc2)=C1c1ccc(O)cc1 | – | > 100 | – | > 100 | – | > 100 | – | > 100 | – | > 100 | – | – | – | – | – | – | – | – | –
3 | CC(=O)[O][Hg][c]1s[c]([Hg][O]C(C)=O)[c]([Hg][O]C(C)=O)[c]1[Hg][O]C(C)=O | – | – | – | – | – | – | – | – | – | – | 3.6 | > 100 | 14.3 | 37.3 | 3.99 | > 100 | 1.42 | – | –
4 | COc1ccc(F)cc1-c1ccnc2[nH]c(C3=CCN(C4CCC(CC(=O)O)CC4)CC3)cc12 (centres undefined) | 0.346 | > 100 | 0.177 | 0.965 | 0.221 | 1.05 | 2.15 | > 100 | 0.313 | > 100 | – | – | – | – | – | – | – | – | –
5 | CCCC(=O)OC(OC(=O)CCC)c1ccc([N+](=O)[O-])o1 | – | > 100 | – | > 100 | – | 47.4 | – | > 100 | – | > 100 | – | – | – | – | – | – | – | – | –
6 | CN(C)CCOc1ccc2c(c1)C(=O)/C(=C\c1ncc([N+](=O)[O-])n1C)C2 | 0.234 | 0.661 | 1.87 | 5.37 | 0.209 | 0.643 | 1.43 | 4.55 | 0.965 | 4.82 | – | – | – | – | – | – | – | – | –
7 | CN(C)C(=S)/N=c1\ss/c(=N\S(=O)(=O)c2ccccc2)n1C | – | – | – | – | – | – | – | – | – | – | – | > 100 | – | > 100 | – | > 100 | – | > 100 | > 100
8 | CSCC[C@H](NC(=O)[C@@H](N)CC(N)=O)C(=O)N[C@@H](Cc1c[nH]c2ccccc12)C(=O)N[C@@H](CCC(N)=O)C(=O)N[C@@H](CCC(=O)O)C(=O)N[C@H](C(=O)NCC(=O)N[C@@H](CCCCN)C(=O)N[C@H](C)C(=O)O)C(C)C (H-NMWQEVGK[dA]-OH) | – | > 100 | – | > 100 | – | > 100 | – | > 100 | – | > 100 | – | – | – | – | – | – | – | – | –
9 | c1ccc(-c2cc3n4c(-c5ccccc5)nn(-c5ccccc5)c4cnc-3n2)cc1 | – | – | 9.62 | > 50 | > 50 | > 50 | > 50 | > 50 | – | – | – | – | – | – | – | – | – | – | –
10 | C/C(=N\Nc1n[nH]c(=S)n1N)c1c(O)cc(C)oc1=O | – | – | – | – | – | – | – | – | – | – | – | – | – | > 100 | – | > 100 | – | > 100 | > 100
11 | C=C1C(=O)OC2(C)CCC1CC1OC1(C)CCC=C(C)CCC2O (centres undefined) | – | > 100 | – | > 100 | – | > 100 | – | > 100 | – | > 100 | – | – | – | – | – | – | – | – | –
12 | Cn1cccc1-c1cc(-c2ccccc2)nc(N)c1C#N | 97.5 | > 100 | > 28.8 | > 100 | > 100 | > 100 | > 100 | > 100 | > 100 | > 100 | – | – | – | – | – | – | – | – | –
13 | CC(=O)/C(=C/N1CCN(C(=O)c2ccco2)C1=S)C(=O)c1ccccc1 | 11 | 30.4 | – | – | 10.7 | 43.9 | – | – | 17.1 | > 50 | – | – | – | – | – | – | – | – | –
14 | CC1=C(SCCC(=O)OC(C[Se]C2=C(C)C(=O)c3ccccc3C2=O)C(=O)NC(C)(C)C)C(=O)c2ccccc2C1=O (centres undefined) | 1.49 | 2.82 | 1.07 | 3.31 | 1.77 | 3.77 | 0.701 | 1.98 | 0.457 | 1.69 | – | – | – | – | – | – | – | – | –
15 | CC1(C2CCC3(C)C(C2)C3Sc2ccccc2)OCCO1 (centres undefined) | – | – | – | – | – | – | – | – | – | – | – | 60 | – | – | – | 40.6 | – | – | > 100
16 | CCOc1ccccc1N=Cc1c2ccccc2cc2ccccc12 | – | 58.4 | – | > 53.9 | – | 56 | – | > 66.1 | – | > 68.8 | – | – | – | – | – | – | – | – | –
17 | COc1ccc2c(c1)[nH]c1c3ccc(OC)cc3oc(=O)c21 | – | > 100 | – | > 100 | – | > 100 | – | > 100 | – | > 100 | – | – | – | – | – | – | – | – | –
18 | NC1=C(O)C(=O)C(c2c[nH]c3ccc(OCc4ccccc4)cc23)O1 (centres undefined) | – | > 100 | – | > 100 | – | > 100 | – | > 100 | – | > 100 | – | – | – | – | – | – | – | – | –
19 | CCOc1ccccc1NC(=O)C1=C(C)NC(C)=C(C(=O)Nc2ccccc2OCC)C1c1cccc([N+](=O)[O-])c1 | – | – | – | – | – | – | – | – | – | – | – | > 100 | – | > 100 | – | > 100 | – | – | > 100
20 | CCCCCCCCc1cc(O)ccc1O | 21.9 | 52.5 | 15.4 | 53.5 | 19.5 | 49.7 | 19.3 | 56.2 | 16 | 37.3 | – | – | – | – | – | – | – | – | –
21 | C1CC[N-]CC1.CC(=N\O)/C(C)=N/O.CC(=N\O)/C(C)=N/O.C[CH-]C(C)O.[Co+2] | 81.1 | > 100 | 28 | 83.1 | 23.1 | 51.7 | 54.2 | > 100 | 26.7 | 70.8 | – | – | – | – | – | – | – | – | –
22 | CNC(=O)c1cc(-c2ccc(F)cc2)cc(-c2ccc(S(=O)(=O)N3CCCC3)cc2)c1N | > 25 | > 25 | > 11.1 | > 25 | > 25 | > 25 | 16.2 | > 25 | 8.54 | > 25 | – | – | – | – | – | – | – | – | –
23 | CCOC(=O)N(O)c1ccc(/C=C/c2ccccc2)cc1 | 11.2 | > 88.6 | 29.4 | > 100 | 11 | 48.6 | 13 | 88.6 | 8.23 | > 100 | – | – | – | – | – | – | – | – | –
24 | C[C@@H](C[C@H](CCO)c1ccccc1)c1ccc2ccccc2c1 | 1.47 | 2.84 | 1.69 | 3.84 | 1.56 | 2.95 | 1.66 | 3.4 | 1.39 | 2.72 | – | – | – | – | – | – | – | – | –
25 | CCCCOP1(=O)CC(C)=C(Cl)C(C)(OC)C1 (centres undefined) | – | – | – | – | – | – | – | – | – | – | – | > 100 | – | > 100 | – | > 100 | – | – | > 100
